Where “and” joins values, the source holds several entries; their conditions need not be identical. Equal values may be shown once. Read-outs that look alike come from different tables or passages of the source.
Experiments:
GABAA [1] = conditions: cited from earlier work
[2] = test system: NMDA, benzodiazepine, quisqualate, kainate, muscarinic cholinergic, adrenergic, serotoninergic and histaminergic receptors; conditions: 1 mM; cited from earlier work
[3] = target: human r1 receptors (GABAC receptors) (Homo sapiens, UniProt P24046); assay: Two-electrode voltage clamp recording of human r1 GABAC receptors expressed in Xenopus oocytes; conditions: for Effect as agonist or antagonist at GABAC receptors: screened at 100 μM; for IC50: IC50 (concentration that inhibits 50% of the response produced by 1 μM GABA), 1 μM GABA; for Mode of antagonism: Schild analysis; for Activation of the receptor by compound alone / Effect on GABA response when co-applied with GABA (1 μM): 100 μM, FIG. 1
Protocol: The plasmid was linearized with XbaI and cRNA made using the “Message Machine” kit from Ambion Inc. (Austin, Tex., USA). 50 ng of cRNA was injected into defolliculated Stage V Xenopus oocytes. Two to seven days later, receptor activity was measured by two-electrode voltage clamp recording, using a Geneclamp 500 amplifier (Axon Instruments Inc., Foster City, Calif., USA) and a MacLab 2e recorder (ADInstruments, Sydney, NSW, Australia). […] For receptor activation measurements, the indicated concentrations of agonist and antagonist were added to ND96.

GABAA [4] = test system: T1, GABAA; conditions: Na-independent [3H]GABA binding (Johnston et al, 1978); read-out: GABAA receptor affinity, IC50; cited from earlier work
T1 construct: Activity at GABAA; other: Woodward et al, 1993; GABAA Kb; other: Ragozzino et al (1996); other: PMPA; source not given, column fo

GABAC (human r1) = target: T2, GABAC (human r1) (Homo sapiens, UniProt P24046); conditions: data from Murata et al, 1996; cited from earlier work
T2 construct: host or cells: Xenopus oocytes expressing human r1 mRNA

GABAC receptors = conditions: Woodward et al, 1993, cited from earlier work
GABAA [5] = test system: T1, GABAA; conditions: [3H]muscimol binding (Froestl et al, 1995a; 1995b), cited from earlier work; for IC50: read-out: GABAA receptor affinity, IC50
GABAB = GABAB (Rattus norvegicus, UniProt Q9Z0U4); set-up: from tissue; host or cells: rat cortical membranes / neocortical slices; values largely from the literature; conditions: [3H]CGP27492 binding (Froestl et al; Bittiger et al; Olpe et al); read-out: GABAB receptor affinity, IC50; cited from earlier work
GABAB, sequence (Q9Z0U4 17-960 limits assumed): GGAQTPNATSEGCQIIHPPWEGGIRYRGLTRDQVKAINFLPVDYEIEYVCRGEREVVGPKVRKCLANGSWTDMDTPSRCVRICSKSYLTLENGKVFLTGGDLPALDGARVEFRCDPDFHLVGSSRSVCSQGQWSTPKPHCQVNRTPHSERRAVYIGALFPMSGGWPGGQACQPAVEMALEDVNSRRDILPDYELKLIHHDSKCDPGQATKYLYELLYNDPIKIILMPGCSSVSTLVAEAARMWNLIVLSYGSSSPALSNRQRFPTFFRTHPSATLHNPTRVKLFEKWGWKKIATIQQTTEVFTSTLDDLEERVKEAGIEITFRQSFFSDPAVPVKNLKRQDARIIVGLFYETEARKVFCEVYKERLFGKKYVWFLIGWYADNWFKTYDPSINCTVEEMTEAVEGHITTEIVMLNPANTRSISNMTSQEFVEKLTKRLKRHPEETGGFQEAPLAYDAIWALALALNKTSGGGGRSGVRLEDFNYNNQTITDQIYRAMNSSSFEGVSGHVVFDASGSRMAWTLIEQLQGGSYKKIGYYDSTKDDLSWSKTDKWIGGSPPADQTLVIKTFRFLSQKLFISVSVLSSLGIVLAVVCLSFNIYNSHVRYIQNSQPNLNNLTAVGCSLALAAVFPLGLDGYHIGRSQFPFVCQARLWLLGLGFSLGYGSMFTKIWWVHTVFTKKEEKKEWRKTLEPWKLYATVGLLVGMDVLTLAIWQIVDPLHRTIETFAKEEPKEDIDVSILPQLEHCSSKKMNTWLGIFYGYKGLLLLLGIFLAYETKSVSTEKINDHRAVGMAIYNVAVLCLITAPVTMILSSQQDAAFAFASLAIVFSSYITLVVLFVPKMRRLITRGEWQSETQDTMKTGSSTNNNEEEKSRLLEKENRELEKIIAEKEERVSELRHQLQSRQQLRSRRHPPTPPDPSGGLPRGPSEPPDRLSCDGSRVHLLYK
GABAB, sequence (O88871 41-940 partner): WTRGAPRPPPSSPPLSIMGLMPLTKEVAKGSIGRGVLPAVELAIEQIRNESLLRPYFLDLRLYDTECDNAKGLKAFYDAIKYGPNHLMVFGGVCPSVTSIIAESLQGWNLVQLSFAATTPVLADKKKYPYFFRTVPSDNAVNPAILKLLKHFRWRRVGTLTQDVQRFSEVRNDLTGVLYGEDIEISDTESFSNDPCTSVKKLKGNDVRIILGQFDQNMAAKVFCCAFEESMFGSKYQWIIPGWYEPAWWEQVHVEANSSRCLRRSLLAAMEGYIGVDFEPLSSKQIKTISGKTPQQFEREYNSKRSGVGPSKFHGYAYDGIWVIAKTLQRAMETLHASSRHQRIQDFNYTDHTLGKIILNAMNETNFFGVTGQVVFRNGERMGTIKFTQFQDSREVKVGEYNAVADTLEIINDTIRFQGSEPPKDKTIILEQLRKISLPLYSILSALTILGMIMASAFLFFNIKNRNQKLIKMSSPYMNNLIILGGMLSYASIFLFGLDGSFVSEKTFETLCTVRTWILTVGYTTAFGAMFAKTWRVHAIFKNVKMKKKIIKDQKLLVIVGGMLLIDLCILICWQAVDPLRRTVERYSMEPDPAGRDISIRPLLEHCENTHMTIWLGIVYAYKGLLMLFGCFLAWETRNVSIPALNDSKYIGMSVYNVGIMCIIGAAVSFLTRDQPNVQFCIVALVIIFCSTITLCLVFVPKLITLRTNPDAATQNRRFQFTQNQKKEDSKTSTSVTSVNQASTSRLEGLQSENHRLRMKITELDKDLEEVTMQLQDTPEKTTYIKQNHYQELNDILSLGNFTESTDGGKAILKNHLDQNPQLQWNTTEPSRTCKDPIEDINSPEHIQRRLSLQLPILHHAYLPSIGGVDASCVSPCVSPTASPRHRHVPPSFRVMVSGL

human r1 receptors (GABAC receptors), sequence (P24046 22-479): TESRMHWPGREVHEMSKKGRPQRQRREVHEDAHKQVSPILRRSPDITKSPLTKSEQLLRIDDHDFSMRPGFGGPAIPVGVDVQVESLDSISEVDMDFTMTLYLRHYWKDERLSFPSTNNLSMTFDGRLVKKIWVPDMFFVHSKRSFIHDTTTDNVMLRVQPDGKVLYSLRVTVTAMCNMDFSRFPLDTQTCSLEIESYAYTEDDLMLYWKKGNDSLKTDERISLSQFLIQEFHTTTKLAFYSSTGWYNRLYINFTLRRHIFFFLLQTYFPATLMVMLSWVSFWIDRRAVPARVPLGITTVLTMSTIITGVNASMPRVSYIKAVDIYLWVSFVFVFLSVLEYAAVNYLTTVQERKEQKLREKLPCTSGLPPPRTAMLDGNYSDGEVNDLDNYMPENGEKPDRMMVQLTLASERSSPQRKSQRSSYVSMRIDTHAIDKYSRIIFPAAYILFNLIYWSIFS
T2 sequence (P24046 22-479): as above

| Compound | Activation of Cl− channel current by compound on its own [3] | nH (Hill Coefficient) [3] | IC50 (GABAA [5]) [µM] | Kb [3] [µM] | Slope of Schild Plot [3] | IC50 [3] | Mode of antagonism [3] | nH of GABA curve in the presence of antagonist ([3]; [Antagonist] 30 μM) | nH of GABA curve in the presence of antagonist ([3]; [Antagonist] 100 μM) | Activation of the receptor by compound alone [3] | Effect on GABA response when co-applied with GABA (1 μM) [3] | also measured |
| --- | --- | --- | --- | --- | --- | --- | --- | --- | --- | --- | --- | --- |
| CCCCP(=O)(O)CCCN [CGP36742, (3-aminopropyl)-n-butylphosphinic acid] |  |  |  |  |  |  |  |  |  |  |  | IC50 (GABAA [1]): 500 µM; Effect at other receptor types [2]: no effect |
| C[C@H](NC[C@@H](O)CP(=O)(O)Cc1ccccc1)c1ccc(Cl)c(Cl)c1 [CGP55845A] |  |  |  |  |  |  |  |  |  |  |  | Effect as agonist or antagonist at GABAC receptors [3]: no effect as either agonists or antagonists |
| O=C(O)C1=CCNCC1 [Isoguvacine] |  |  |  |  |  |  |  |  |  |  |  | IC50 (GABAA [4]): 1.4 µM; EC50 (GABAC (human r1)): 99 µM |
| NC[C@H](O)CP(=O)(O)CC1CCCCC1 [CGP51176, (2S)-3-amino-2-hydroxypropyl(cyclohexylmethyl)phosphinic acid] |  |  |  |  |  |  |  |  |  |  |  | Effect as agonist or antagonist at GABAC receptors [3]: no effect as either agonists or antagonists |
| NC/C=C/C(=O)O [TACA, trans-4-aminocrotonic acid] | activated the Cl^− channel | 2.4 ± 0.2 |  |  |  |  |  |  |  |  |  | IC50 (GABAA [4]): 0.14 µM; Kd (GABAC receptors; Johnston, 1996b, read-out: KD (agonist)): 0.6 µM; Maximal dose current as % of the maximal GABA activated current ([3]; maximal dose): 95%; EC50 ([3]; read-out: EC50 (effective dose that activates 50% of the maximal current), r1 receptors in Xenopus oocytes, clamped at −60 mV): 0.44 ± 0.02 µM |
| NCCC[PH](=O)O [CGP27492, 3-aminopropylphosphinic acid] | did not activate any current on their own | 1.9 ± 0.2 | 1.7 | 3.2 ± 1 | 0.99 | 2.47 ± 0.04 µM | competitive antagonists | 2.4 ± 0.3 | 2.5 ± 0.2 |  |  | Kb (GABAC receptors; read-out: KB (antagonist)): 1.8 µM; nH of GABA curve in the presence of antagonist ([3]; [Antagonist] 10 μM): 2.3 ± 0.1 |
| CP(=O)(O)/C=C/CN [CGP44530, [(E)-3-Aminopropen-1-yl]methylphosphinic acid] | did not activate any current on their own | 2.4 ± 0.5 |  | 8.6 ± 1.6 | 1.01 | 5.5 µM and 5.53 µM | competitive antagonists | 3.0 ± 0.1 | 3.7 ± 0.4 | do not activate the receptor | the GABA response is blocked or reduced | GABAA receptor affinity, IC50 (GABAA [5]): inactive at 100; nH of GABA curve in the presence of antagonist ([3]; [Antagonist] 10 μM): 2.6 ± 0.2; IC50 (GABAB): 0.65 µM |
| NC/C=C/[PH](=O)O [CGP38593, [(E)-3-aminopropen-1-yl]phosphinic acid] | did not activate any current on their own | 1.8 ± 0.4 | 6.8 | 15.5 ± 1.7 | 0.95 | 7.7 µM and 7.68 µM | competitive antagonists | 2.7 ± 0.1 | 3.0 ± 0.1 | do not activate the receptor | the GABA response is blocked or reduced | nH of GABA curve in the presence of antagonist ([3]; [Antagonist] 60 μM): 2.5 ± 0.4 |
| CP(=O)(O)/C=C\CN [CGP70523, [(Z)-3-aminopropen-1-yl]methylphosphinic acid] | did not activate any current on their own | 1.6 ± 0.1 | 242 |  |  | 38.9 µM and 38 µM | competitive antagonists |  |  | do not activate the receptor | the GABA response is blocked or reduced | IC50 (GABAB): 16 µM |

Source: US6632806B1, “Neurologically-active compounds” (The University of Sydney, priority 1997, dated 2003)
